Data published in PMC3700073, “Synthesis and Biological Activity of New Thiopyrano[2,3-d]thiazoles Containing a Naphthoquinone Moiety” (Scientia Pharmaceutica, 2013).
Converted amounts (≈) assume the structure as drawn. Like-named read-outs stand apart in the source and are kept apart here.

Columns and labels:
[1] = system: male mice; assay: Acute toxicity in vivo, median lethal dose; details: intraperitoneal, approximate LD50 (Litchfield and Wilcoxon)
Experimental: The synthesized compounds were evaluated for their approximate LD50 in male mice. The mice were kept under a constant temperature and humidity in sterile cages with water and food. The stock solutions of the compounds used in this study were prepared immediately before usage and injected intraperitoneally (ip). The LD50 values (Tab. 3) were calculated using the method described by Litchfield and Wilcoxon.
The median lethal dose (LD50), the dose of the selected compounds that causes 50% mortality in mice, was determined from dose–response curves with at least four doses by the method of Litchfield and Wilcoxon.

[2] = system: Mycobacterium tuberculosis H37Rv strain (ATCC 27294); assay: Antimycobacterial pre-screening at 6.25 μg/mL (BACTEC 460 radiometric system); type: cell-based; details: M. tuberculosis H37Rv; for inhibition at 6.25 µg/mL: 6.25 μg/mL; for MIC90: pre-screening, read-out: Estimation of MIC90
[3] = in vitro; details: African green monkey
[4] = system: M. tuberculosis H37Rv; assay: Microplate Alamar Blue Assay (MABA), MIC determination; type: cell-based, Mycobacterium tuberculosis; details: two-fold dilution from 100.00 to 0.19 μg/mL
[5] = Cytotoxicity in VERO cells (MTT); details: African green monkey
[6] = Mycobacterium tuberculosis, H37RV, read-out: MIC90

Row | SMILES | LD50ip [1] [mg/kg] | inhibition at 6.25 µg/mL [2] [%] | MIC90 [2] [mg/L] | IC50 at 72 h [3] [mg/L] | MIC90 [4, 6] [mg/L] | IC50 at 72 h [5] [mg/L] | MIC90 [4] [mg/L]
1 | O=C1C2=C(C(=O)c3ccccc31)C(c1ccc(Cl)cc1)c1sc(=O)[nH]c1S2 (stereo not drawn) [Compound 4g, 11-(4-Chlorophenyl)-3,11-dihydro-2H-benzo[6,7]thiochromeno[2,3-d][1,3]thiazole-2,5,10-trione] | >1000 | ≥ 90 | < 6.25 | 1.58 (≈ 3.84 µM) | – | – | –
2 | CO[C@H]1/C=C/O[C@@]2(C)Oc3c(C)c(O)c4c(O)c(c(/C=N/N5CCN(C)CC5)c(O)c4c3C2=O)NC(=O)/C(C)=C\C=C\[C@H](C)[C@H](O)[C@@H](C)[C@@H](O)[C@@H](C)[C@H](OC(C)=O)[C@@H]1C [Rifampin, reference compound] | – | – | – | – | 0.075 (≈ 0.0911 µM) | > 6 | –
3 | NNC(=O)c1ccncc1 [Isoniazid, isoniazid, reference compound] | – | – | – | – | 0.044 (≈ 0.321 µM) | > 6 | –
4 | COc1cc(C2C3=C(Sc4[nH]c(=O)sc42)C(=O)c2ccccc2C3=O)ccc1OC(F)F (stereo not drawn) [Compound 4d, 11-[4-(Difluoromethoxy)-3-methoxyphenyl]-3,11-dihydro-2H-benzo[6,7]thio-chromeno[2,3-d][1,3]thiazole-2,5,10-trione] | 710 | 65 | > 6.25 | – | – | – | –
5 | O=C1C2=C(C(=O)c3ccccc31)C(c1ccc(F)cc1)c1sc(=O)[nH]c1S2 (stereo not drawn) [Compound 4h, 11-(4-Fluorophenyl)-3,11-dihydro-2H-benzo[6,7]thiochromeno[2,3-d][1,3]thiazole-2,5,10-trione] | 750 | ≥ 90 | < 6.25 | 1.47 (≈ 3.72 µM) | – | – | –
6 | CC(C)(C)c1ccc(C2C3=C(Sc4[nH]c(=O)sc42)C(=O)c2ccccc2C3=O)cc1 (stereo not drawn) [Compound 4b, 11-(4-tert-Butylphenyl)-3,11-dihydro-2H-benzo[6,7]thiochromeno[2,3-d][1,3]thiazole-2,5,10-trione] | 650 | 61 | > 6.25 | – | – | – | –
7 | COC(=O)c1ccc(C2C3=C(Sc4[nH]c(=O)sc42)C(=O)c2ccccc2C3=O)cc1 (stereo not drawn) [Compound 4c, Methyl 4-(2,5,10-trioxo-3,5,10,11-tetrahydro-2H-benzo[6,7]thiochromeno[2,3-d][1,3]thiazol-11-yl)benzoate] | 180 | ≥ 90 | < 6.25 | – | – | – | –
8 | O=C1C2=C(C(=O)c3ccccc31)C(c1ccccc1O)c1sc(=O)[nH]c1S2 (stereo not drawn) [Compound 4a, 11-(2-Hydroxyphenyl)-3, 11-dihydro-2H-benzo[6,7]thiochromeno[2,3-d][1,3]thiazole-2,5,10-trione] | 800 | ≥ 90 | < 6.25 | 0.44 (≈ 1.12 µM) | 0.6 to 2.7 (≈ 1.52 to 6.86 µM) | – | 0.68 (≈ 1.73 µM)
